Laboratory results published in US20170121385A1 (Oxeia Biopharmaceuticals, Inc., priority 2015, published 2017).
pKi: −log10 of the molar value. Like-named read-outs stand apart in the source and are kept apart here.

Experiments:
severe TBI [1] = assay: severe TBI model (brain tissue loss, apoptosis, balance beam foot faults, edema); assay type: in vivo, mice; conditions: as low as 20 μg/kg in two doses early after injury; pre-clinical modeling
Source text: In a series of publications, the Bansal laboratory has shown that exogenously dosed ghrelin confers significant neuroprotective benefits following severe TBI. […] Severe TBI causes significant tissue necrosis and neuron loss secondary to edema and apoptosis. […] Severe TBI induces apoptosis within the neocortex (TUNEL staining green). […] Severe TBI caused significant neurocognitive defects (as measured by foot faults on a balance beam assay) on post-TBI Day 1, 3 and 7 compared to sham.

severe TBI [2] = conditions: cited from earlier work; for brain tissue loss / loss of brain volume: 7 days following injury, 10 minutes and 1 hour after TBI; for brain tissue loss / loss of brain volume / apoptosis in the neocortex (TUNEL staining): ghrelin 20 μg/kg; for apoptosis in the neocortex (TUNEL staining): two doses
[3] = human, in vivo; cited from earlier work
mild TBI [4] = assay: mild TBI model, myeloperoxidase (MPO) and Gr-1 (neutrophil) staining in the hippocampus; assay type: in vivo, mouse; conditions: same three animal groups
Description: In a mild TBI model, ghrelin therapy provided significant neuroprotective effects. Using a controlled cortical impactor, with standardized settings (5.0 m/s, a 3 mm diameter impounder tip, a depth of 1.0 mm, and a dwell time of 0.2 milliseconds), a mouse mild brain injury was elicited in three groups (n=5 in each group), sham, mTBI only, mTBI with 2 doses of ghrelin (50 μg/kg) 10 minutes and 1 hour after injury. Ghrelin reduces oxidative burst (a measure of ROS) following mild TBI in animal models. Oxidative burst was determined 24 hours following mild TBI in three groups via flow cytometry. […] In separate experiments, using the same three animal groups, myeloperoxidase (MPO) and Gr-1 (neutrophil) staining were conducted in the hippocampus. […] Myeloperoxidase (MPO) is a potent enzyme in neutrophils and […] that forms hypochlorous acid (ROS). […] Ghrelin therapy reduced MPO staining. These observations built upon previous work showing ghrelin's protective effect following severe TBI models, stroke and other neurodegenerative diseases.

mild TBI [5] = assay: mild TBI model (controlled cortical impactor), whole brain oxidative burst assay by flow cytometry; assay type: in vivo, mouse
Description: In a mild TBI model, ghrelin therapy provided significant neuroprotective effects. Using a controlled cortical impactor, with standardized settings (5.0 m/s, a 3 mm diameter impounder tip, a depth of 1.0 mm, and a dwell time of 0.2 milliseconds), a mouse mild brain injury was elicited in three groups (n=5 in each group), sham, mTBI only, mTBI with 2 doses of ghrelin (50 μg/kg) 10 minutes and 1 hour after injury. Animals were sacrificed after 24 hours and whole brain reactive oxygen species was assessed by an oxidative burst assay as measured by flow cytometry. […] Ghrelin therapy decreased mTBI oxidative burst to sham levels 3,300 MFI (SEM 1,000); p<0.05 mTBI compared to drug treated.

rodent brain injury = conditions: cited from earlier work
GHS-R = GHS-R (Homo sapiens, UniProt Q92847); assay: GHS-R antagonist activity in a cell based assay; conditions: GHS-R modulating compounds
Sequence of GHS-R (Q92847 whole entry, species assumed): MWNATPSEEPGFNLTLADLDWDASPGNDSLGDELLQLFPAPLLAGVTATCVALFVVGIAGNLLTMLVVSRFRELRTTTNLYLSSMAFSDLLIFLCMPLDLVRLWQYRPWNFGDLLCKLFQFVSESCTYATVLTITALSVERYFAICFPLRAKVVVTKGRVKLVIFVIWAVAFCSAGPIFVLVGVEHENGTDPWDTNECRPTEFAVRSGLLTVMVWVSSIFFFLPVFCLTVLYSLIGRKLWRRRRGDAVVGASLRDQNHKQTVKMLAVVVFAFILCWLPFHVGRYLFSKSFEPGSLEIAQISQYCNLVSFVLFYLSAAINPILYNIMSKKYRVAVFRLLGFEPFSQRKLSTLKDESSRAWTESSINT

| Molecule | post-severe TBI edema (severe TBI [1]) | brain tissue loss / loss of brain volume (severe TBI [2]; listed as ghrelin) | brain tissue loss / loss of brain volume (severe TBI [2]) | invasion of inflammatory cells (severe TBI [2]) | apoptosis in the neocortex (TUNEL staining) (severe TBI [2]; listed as ghrelin) | apoptosis in the neocortex (TUNEL staining) (severe TBI [2]) | neurocognitive function (foot faults on a balance beam assay) (severe TBI [2]; post-TBI Day 1, 3 and 7, ghrelin dosed only at Day 0, listed as ghrelin) | neurocognitive function (foot faults on a balance beam assay) (severe TBI [2]; post-TBI Day 1, 3 and 7, ghrelin dosed only at Day 0) | serious adverse events [3] | side effects observed [3] | MPO staining in the hippocampus (mild TBI [4]) | neutrophil infiltration (Gr-1 staining) in the hippocampus (mild TBI [4]) | efficacy in mTBI (mild TBI [5]; 50 μg/kg, two doses administered within 24 hours of injury, initial pre-clinical experiments) | oxidative burst (a measure of ROS) following mild TBI (mild TBI [5]; 24 hours following mild TBI, flow cytometry) | oxidative burst (whole brain reactive oxygen species) (mild TBI [5]; mouse mTBI, 2 doses of ghrelin (50 μg/kg) 10 minutes and 1 hour after injury, sacrificed after 24 hours, flow cytometry, n=5) | ROS accumulation (rodent brain injury) | neuro-cognitive function (rodent brain injury) | neuron tissue loss (rodent brain injury) | neuronal apoptosis (rodent brain injury) | pKi (GHS-R) |
| --- | --- | --- | --- | --- | --- | --- | --- | --- | --- | --- | --- | --- | --- | --- | --- | --- | --- | --- | --- | --- |
| Ghrelin (GSSFLSPEHQRVQQRKESKKPPAKLQPR; Ghrelin-28; UniProt Q9UBU3 24-51, looked up) | significant decrease | significantly less | significantly decreased | decreased | significantly less | significantly reduced | improved | prevented neurocognitive decline to levels of sham | no serious adverse events | only transient gastrointestinal symptoms | significant reduction | significant reduction | efficacy | significantly reduced | 3,300 MFI | prevents | improves | decreases | prevents |  |
| CCN(CC)CCCS(=O)(=O)N[C@H](CCc1ccccc1)c1nc(-c2cncc(Br)c2)no1 [Compound 103] |  |  |  |  |  |  |  |  |  |  |  |  |  |  |  |  |  |  |  | 6.30 to 7.00 |
